Reference: a compilation of properties of binary mixtures (doi:10.1524/zpch.2013.0328)

Assay: xn = mol fraction of the nth substance listed
Conditions: 100 kPa

CC(C)C[P+](C)(CC(C)C)CC(C)C.Cc1ccc(S(=O)(=O)[O-])cc1 + O
viscosity [mPa·s]
Conditions | 301.15 K | 313.15 K | 323.15 K | 333.15 K | 343.15 K | 353.15 K
x1 = 0.4387 | 264 | 131 | – | 47 | – | 24
x1 = 0.9022 | – | 887 | 423 | – | 126 | –

CC(CC(C)(C)C)CP(=O)([O-])CC(C)CC(C)(C)C.CCCCCCCCCCCCCC[P+](CCCCCC)(CCCCCC)CCCCCC + O
viscosity [mPa·s]
Conditions | 298.15 K | 303.15 K | 313.15 K | 323.15 K | 333.15 K | 343.15 K | 353.15 K
x1 = 0.1299 | – | 105 | 65 | 42 | 29 | 22 | 16
x1 = 0.7942 | 1004 | 757 | 439 | – | 170 | 111 | 78

CCCCCCCCCCCCCC[P+](CCCC)(CCCC)CCCC.CCCCCCCCCCCCc1ccc(S(=O)(=O)[O-])cc1 + O
viscosity [mPa·s]
Conditions | 298.15 K | 303.15 K | 313.15 K | 323.15 K | 333.15 K | 343.15 K | 353.15 K
x1 = 0.3452 | 506 | 365 | 197 | – | 74 | 54 | 40
x1 = 0.892 | – | – | 1477 | 750 | 409 | 238 | –

CCCCCCCCCCCCCC[P+](CCCCCC)(CCCCCC)CCCCCC.N#C[N-]C#N + O
viscosity [mPa·s]
Conditions | 303.15 K | 313.15 K | 323.15 K | 333.15 K | 343.15 K | 353.15 K
x1 = 0.551 | 138 | 86 | 53 | 40 | 28 | 22
x1 = 0.8444 | – | 196 | 123 | 82 | 56 | 41

CCCCCCCC[N+](C)(CCCCCCCC)CCCCCCCC.O=S(=O)([N-]S(=O)(=O)C(F)(F)F)C(F)(F)F + O
x1 = 0.8467
Conditions | viscosity [mPa·s]
298.15 K | 601
303.15 K | 426
323.15 K | 144
333.15 K | 92
353.15 K | 46

CC[n+]1ccn(C)c1.O=S(=O)([N-]S(=O)(=O)C(F)(F)F)C(F)(F)F + O
x2 = 0.0086
Conditions | viscosity [mPa·s]
299.15 K | 33
303.15 K | 28
313.15 K | 22
323.15 K | 18
333.15 K | 14
343.15 K | 12
